Laboratory results: patent US10687525B2, “Enhancement of cell cryopreservation with glycolipids” (TISSUE TESTING TECHNOLOGIES LLC, priority 2016, dated 2020)

System: keratinocytes
Test: Cell viability of keratinocytes after cryopreservation in 10% DMSO in RPMI (alamarBlue)
Format: cell-based
Conditions: keratinocytes cryopreserved in vials or culture plates in 10% DMSO in RPMI
Method: In the results discussed below, measurement of Cell Viability and Proliferation in FIGS. 1-4 employed AlamarBlue™ by measuring the oxidation/reduction reactions that take place within cells. AlamarBlue™ was added directly to the plates containing cultured cells in culture medium and incubated for 3 hours at 37° C. Upon reduction, AlamarBlue™ changes color and this color change can be measured and quantified. The culture plates were read using a Gemini EM fluorescent microplate reader ([…]) at an excitation wavelength of 544 nm and an emission wavelength of 590 nm. […] Keratinocytes were cryopreserved in vials or in culture plates in 10% DMSO in RPMI. Metabolic activity was measured immediately after thawing and for several days post thaw. Cell viability (in percent of untreated controls) was calculated as the mean (±SEM) of 120 replicates.

Q: Which “cell yields after cryopreservation (cell viability in percent of untreated controls)” value does the source give for C[S+](C)[O-] [DMSO, dimethyl sulfoxide] here?
A: Its value is “below 50%”.
